In the assay the target is T1, human neutrophil elastase (Homo sapiens, UniProt P08246).
T1 sequence (P08246 30-267): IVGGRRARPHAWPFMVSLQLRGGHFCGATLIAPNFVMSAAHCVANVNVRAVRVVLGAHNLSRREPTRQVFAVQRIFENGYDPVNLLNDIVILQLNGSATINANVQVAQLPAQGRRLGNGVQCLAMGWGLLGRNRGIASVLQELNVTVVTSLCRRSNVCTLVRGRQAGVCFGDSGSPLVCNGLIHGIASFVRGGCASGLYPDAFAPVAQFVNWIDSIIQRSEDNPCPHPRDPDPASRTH
The assay can be described thus: In vitro assay of human neutrophil elastase (HNE). In kind it is biochemical. The settings on record: 118 nM purified human neutrophil elastase, pH 8.6, 15 min incubation at 30° C., MeO-succinyl-alanyl-alanyl-prolyl-valyl-p-nitroanilide substrate; read-out: HNE IC50. The gist of the method: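 Residual activity was taken as the 10 min rate of absorbance rise at 405 nm after adding 0.6 mM MeO-succinyl-AAPV-p-nitroanilide. Curve fitting of activity against concentration gave IC50.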

Structures can show the parent of a compound that is named as a salt.

In general, IC50 refers to the concentration that inhibits the measured activity by half. For the compound `CCC[C@H]1C(=O)N(S(=O)(=O)c2ccc3ccccc3c2)[C@H]2CCN(C(=O)CCCN(C)C)[C@H]12` (relative stereo) [Example 25, rel-(3R,3aR,6aS)-4-(4-Dimethylamino-butyryl)-1-(naphthalene-2-sulfonyl)-3-propyl-hexahydro-pyrrolo[3,2-b]-pyrrol-2-one], the IC50 worked out at 59 nM. Turning to `CCC[C@H]1C(=O)N(S(C)(=O)=O)[C@H]2CCN(S(=O)(=O)c3ccccc3[N+](=O)[O-])[C@H]12` (relative stereo) [Example 226, rel-(3R,3aR,6aS)-1-Methanesulfonyl-4-(2-nitro-benzenesulfonyl)-3-propyl-hexahydro-pyrrolo[3,2-b]pyrrol-2-one], the IC50 is 87 nM. Regarding `C=CC[C@H]1C(=O)N(S(C)(=O)=O)[C@H]2CCN(C(=O)OCc3ccccc3)[C@H]12` (relative stereo) [Example 6, rel-(3aS,6R,6aR)-6-Allyl-4-methanesulfonyl-5-oxo-hexahydro-pyrrolo[3,2-b]pyrrole-1-carboxylic acid benzyl ester], the IC50 was 70 nM. With `CCC[C@H]1C(=O)N(S(C)(=O)=O)[C@H]2CCN(C(=O)CCCCCN(C)C)[C@H]12` (relative stereo) [Example 77, rel-(3R,3aR,6aS)-4-(6-Dimethylamino-hexanoyl)-1-methanesulfonyl-3-propyl-hexahydro-pyrrolo[3,2-b]pyrrol-2-one DL-tartrate] the figure was 134 nM; with `CCC[C@H]1C(=O)N(S(=O)(=O)c2c(C)noc2C)[C@H]2CCN(C(=O)CCN3CCCCC3)[C@H]12` (relative stereo) [Example 170, rel-(3R,3aR,6aS)-1-(3,5-Dimethyl-isoxazole-4-sulfonyl)-4-(3-piperidin-1-yl-propionyl)-3-propyl-hexahydro-pyrrol[3,2-b]pyrrol-2-one DL-tartrate], 180 nM; with `C=CC[C@H]1C(=O)N(S(=O)(=O)c2csc3ccccc23)[C@H]2CCN(C(=O)OCc3ccccc3)[C@H]12` (relative stereo) [Example 41, rel-(3aS,6R,6aR)-6-Allyl-4-(benzo[b]thiophene-3-sulfonyl)-5-oxo-hexahydro-pyrrolo[3,2-b]pyrrole-1-carboxylic acid benzyl ester], 84 nM. On to `CCC[C@H]1C(=O)N(S(=O)(=O)c2cccc3ccccc23)[C@H]2CCN(S(=O)(=O)Cc3cccc(-c4nn[nH]n4)c3)[C@H]12` (relative stereo) [Example 32, rel-(3R,3aR,6aS)-1-(Naphthalene-1-sulfonyl)-3-propyl-4-[3-(1H-tetrazol-5-yl)-phenylmethanesulfonyl]-hexahydro-pyrrol[3,2-b]pyrrol-2-one], for which the IC50 stood at 286 nM. As to `CCC[C@H]1C(=O)N(S(C)(=O)=O)[C@H]2CCN(C(=O)c3ccccn3)[C@H]12` (relative stereo) [Example 238, rel-(3R,3aR,6aS)-1-Methanesulfonyl-3-propyl-4-(pyridine-2-carbonyl)-hexahydro-pyrrolo[3,2-b]pyrrol-2-one], the IC50 stood at 9 nM. The result for `CCC[C@H]1C(=O)N(S(C)(=O)=O)[C@H]2CCN(C(=O)c3cccnc3)[C@H]12` (relative stereo) [Example 247, rel-(3R,3aR,6aS)-1-Methanesulfonyl-3-propyl-4-(pyridine-3-carbonyl)-hexahydro-pyrrolo[3,2-b]pyrrol-2-one] reads 28 nM; that for `C=CC[C@H]1C(=O)N(S(=O)(=O)c2cccc3cccnc23)[C@H]2CCN(C(=O)OCc3ccccc3)[C@H]12` (relative stereo) [Example 49, rel-(3aS,6R,6aR)-6-Allyl-5-oxo-4-(quinoline-8-sulfonyl)-hexahydro-pyrrolo[3,2-b]pyrrole-1-carboxylic acid benzyl ester], 412 nM. Consider `CCC[C@H]1C(=O)N(S(C)(=O)=O)[C@H]2CCN(C(=O)CCN3CCCC3)[C@H]12` (relative stereo) [Example 93, rel-(3R,3aR,6aS)-1-Methanesulfonyl-3-propyl-4-(3-pyrrolidin-1-yl-propionyl)-hexahydro-pyrrolo[3,2-b]pyrrol-2-one hydrochloride], for which the IC50 stood at 89 nM. Take `CCC[C@H]1C(=O)N(S(C)(=O)=O)[C@H]2CCN(C(=O)CN(C)C)[C@H]12` (relative stereo) [Example 102, rel-(3R,3aR,6aS)-4-Dimethylaminoacetyl-1-methanesulfonyl-3-propyl-hexahydro-pyrrolo[3,2-b]pyrrol-2-one hydrochloride]: the half-maximal inhibitory concentration (IC50) turned out to be 91 nM. In the case of `CCC[C@H]1C(=O)N(S(C)(=O)=O)[C@H]2CCN(C(=O)CCCCCN3CCN(C)CC3)[C@H]12` (relative stereo) [Example 79, rel-(3R,3aR,6aS)-1-Methanesulfonyl-4-[6-(4-methyl-piperazin-1-yl)-hexanoyl]-3-propyl-hexahydro-pyrrolo[3,2-b]pyrrol-2-one dihydrochloride], the IC50 amounted to 50 nM. Turning to `CCC[C@H]1C(=O)N(S(C)(=O)=O)[C@H]2CCN(C(=O)CCCN3CCCCCC3)[C@H]12` (relative stereo) [Example 86, hydrochloride], the IC50 came to 103 nM. For `CCC[C@H]1C(=O)N(S(=O)(=O)c2ccc3ccccc3c2)[C@H]2CCN(C(C)=O)[C@H]12` (relative stereo) [Example 24, rel-(3R,3aR,6aS)-4-Acetyl-1-(naphthalene-2-sulfonyl)-3-propyl-hexahydro-pyrrolo[3,2-b][pyrrol-2-one], the concentration for half-maximal inhibition (IC50) was determined as 9 nM.

For the compound `CC(C)[C@H]1C(=O)N(S(C)(=O)=O)[C@H]2CCN(S(=O)(=O)c3ccc(C(F)(F)F)cc3)[C@H]12` (relative stereo) [Example 228, rel-(3R,3aR,6aS)-3-Isopropyl-1-methanesulfony]4-(4-trifluoromethyl-benzenesulfonyl)-hexahydro-pyrrolo[3,2-b]pyrrol-2-one], the IC50 stood at 68 nM.

Consider `CCC[C@H]1C(=O)N(S(C)(=O)=O)[C@H]2CCN(S(=O)(=O)c3ccc(N)cc3)[C@H]12` (relative stereo) [Example 234, rel-(3R,3aR,6aS)-4-(4-Amino-benzenesulfonyl)-1-methanesulfonyl-3-propyl-hexahydro-pyrrolo[3,2-b]pyrrol-2-one], for which the half-inhibitory concentration (IC50) is 11 nM.

For the compound `CCC[C@H]1C(=O)N(S(C)(=O)=O)[C@H]2CCN(C(=O)c3ccccc3)[C@H]12` (relative stereo) [Example 233, rel-(3R,3aR,6aS)-4-Benzoyl-1-methanesulfonyl-3-propyl-hexahydro-pyrrolo[3,2-b]pyrrol-2-one], the IC50 came to 62 nM. Consider `CCC[C@H]1C(=O)N(S(C)(=O)=O)[C@H]2CCN(C(=O)CCN3CCOCC3)[C@H]12` (relative stereo) [Example 46, rel-(3R,3aR,6aS)-1-Methanesulfonyl-4-(3-morpholin-4-yl-propionyl)-3-propyl-hexahydro-pyrrolo[3,2-b]pyrrol-2-one], for which the half-inhibitory concentration (IC50) came to 143 nM. The result for `CCC[C@H]1C(=O)N(S(C)(=O)=O)[C@H]2CCN(C(=O)CCCCCCCCCN3CCCC3)[C@H]12` (relative stereo) [Example 71, rel-(3R,3aR,6aS)-1-Methanesulfonyl-3-propyl-4-(10-pyrrolidin-1-yl-decanoyl)-hexahydro-pyrrolo[3,2-b]pyrrol-2-one hydrochloride] reads 35 nM. For the compound `CCC[C@H]1C(=O)N(S(=O)(=O)c2ccc3ccccc3c2)[C@H]2CCN(S(=O)(=O)CCCCN3CCOCC3)[C@H]12` (relative stereo) [Example 11, rel-(3R,3aR,6aS)-4-(4-Morpholin-4-yl-butane-1-sulfonyl)-1-(naphthalene-2-sulfonyl)-3-propyl-hexahydro-pyrrolo[3,2-b]pyrrol-2-one], the half-maximal inhibitory concentration (IC50) amounted to 111 nM.

For the compound `CCC[C@H]1C(=O)N(S(=O)(=O)C(C)C)[C@H]2CCN(S(=O)(=O)CCCN3CCCCC3)[C@H]12` (relative stereo) [Example 166, rel-(3R,3aR,6aS)-4-(3-Piperidin-1-yl-propane-1-sulfonyl)-1-(propane-2-sulfonyl)-3-propyl-hexahydro-pyrrolo[3,2-b]pyrrol-2-one DL-tartrate], the half-maximal inhibitory concentration (IC50) turned out to be 287 nM. With `CCC[C@H]1C(=O)N(S(C)(=O)=O)[C@H]2CCN(C(=O)CCCCCCCCCN3CCC3)[C@H]12` (relative stereo) [Example 72, rel-(3R,3aR,6aS)-4-(10-Azetidin-1-yl-decanoyl)-1-methanesulfonyl-3-propyl-hexahydro-pyrrolo[3,2-b]pyrrol-2-one DL-tartrate], the IC50 was 37 nM.

As to `CCC[C@H]1C(=O)N(S(C)(=O)=O)[C@H]2CCN(C(=O)c3cccn3C)[C@H]12` (relative stereo) [Example 240, rel-(3R,3aR,6aS)-1-Methanesulfonyl-4-(1-methyl-1H-pyrrole-2-carbonyl)-3-propyl-hexahydro-pyrrolo[3,2-b]pyrrol-2-one], the half-maximal inhibitory concentration (IC50) was 33 nM. The result for `CCC[C@H]1C(=O)N(S(C)(=O)=O)[C@H]2CCN(S(=O)(=O)c3cn(C)cn3)[C@H]12` (relative stereo) [Example 7, rel-(3R,3aR,6aS)-1-Methanesulfonyl-4-(1-methyl-1H-imidazole-4-sulfonyl)-3-propyl-hexahydro-pyrrolo[3,2-b]pyrrol-2-one] reads 134 nM; that for `CCC[C@H]1C(=O)N(S(C)(=O)=O)[C@H]2CCN(S(C)(=O)=O)[C@H]12` (relative stereo) [Example 26, rel-(3R,3aR,6aS)-1,4-Bis-methanesulfonyl-3-propyl-hexahydro-pyrrolo[3,2-b]pyrrol-2-one], 20 nM; that for `CCC[C@H]1C(=O)N(S(C)(=O)=O)[C@H]2CCN(C(=O)CCN3C(C)CCCC3C)[C@H]12` (relative stereo) [Example 92, rel-(3R,3aR,6aS)-4-[3-(2,6-Dimethyl-piperidin-1-yl)-propionyl]-1-methanesulfonyl-3-propyl-hexahydro-pyrrolo[3,2-b]pyrrol-2-one hydrochloride], 70 nM.

The values are drawn from patent publication US6215002A, “Pyrrolopyrrolone derivatives as inhibitors of neutrophil elastase” (priority 1996, dated 2001).
